Blank lines part the entries; values can stand above or below the molecule they belong to.
How the values were obtained:
Type in all cases: physicochemical
[1] = Absorption spectra of dye solutions in water; conditions: for absorption maximum: in water
[2] = Fluorescence of dye solutions in water
[3] = Spectral properties of dye 9 (ScanMix)
Procedure: [drawing 69] 3 ml of acetic anhydride and 0.3 g triethylamine were heated 20 minutes at 110° C., acetic anhydride-removed under reduced pressure then the product precipitated with diethyl ether. The product was purified by HPLC. The absorption maximum of equimolar solutions in ScanMix of new dye 9 was 536 nm, 0.162 a.u.
A mixture of 0.39 g (1 mmol) of 4-ethyl-2-(2-anilino)vinyl-oxazolo[4,5-b]pyridinium iodide, 0.35 g (1 mmol) 2,3,3-trimethyl-1-(5-carboxypentyl)-3H-indolium-5-sulfonate, 3 ml of acetic anhydride and 0.13 g of sodium acetate was heated 20 minutes at 110° C. Acetic anhydride was removed under reduced pressure then the product precipitated with diethyl ether. The product was purified by flash column. […] This new dye 9 (max 583 nm, 447 a.u.) has stronger fluorescence compared with DG527 (594 nm, 401 a.u.).

[4] = Self-quenching of fluorescence with increasing dye/protein ratio (FIG. 1); conditions: relative to dye B with six sulfonic groups
[5] = Photo-stability of dye solutions in water under irradiation
[6] = Stability of Dye 5A and 5B versus commercial dyes (FIG. 3)
[7] = Stability over time (optical density of solution); conditions: after 14 days
[8] = Table 1, symmetrical dyes, solutions in water
[9] = in water, same optical density, excitation at 545 nm

absorption maximum [1]: 673 nm
relative fluorescence intensity [2]: higher relative fluorescence intensity
Molecule: CCN1/C(=C/C=C(/C=C/C2=[N+](CC)c3cc(S(=O)(=O)O)c4cc(S(=O)(=O)O)ccc4c3C2(C)C)c2ccc(C(=O)O)cc2)C(C)(C)c2c1cc(S(=O)(=O)[O-])c1cc(S(=O)(=O)O)ccc21 [Dye 6]

Molecule: 1,1,3-trimethyl-3-(3-sulfophenyl)-1H-benzo[e]indolium-disulfonate [CP-13B]
fluorescence in water ([2]; water): strong fluorescence

fluorescence intensity [3]: 447 a.u.
fluorescence max [3]: 583 nm
absorption maximum ([3]; compared to laser excitation wavelength (532 nm)): about 536 nm
absorbance at absorption maximum ([3]; equimolar solutions in ScanMix): 0.162 a.u.
absorption maximum ([3]; equimolar solutions in ScanMix): 536 nm
Molecule: CC[n+]1cccc2oc(/C=C/C=C/C=C3/N(CCCCCC(=O)O)c4ccc(S(=O)(=O)[O-])cc4C3(C)C)nc21 [Dye 9]

Absorption max, nm [1, 8]: 649 nm
Fluorescence intensity, % ([2]; Table 1, symmetrical dyes in water, S0 (2) = 100): 100%
Fluorescence max, nm [2, 8]: 674 nm
Molecule: CC1(C)C(/C=C/C=C/C=C2/N(c3ccccc3)c3ccccc3C2(C)C)=[N+](c2ccccc2)c2ccccc21 [S0 (2), reference compound]

self-quenching with increasing dye concentration [4]: more readily self-quenched
Molecule: CC[N+]1=C(/C=C/C=C/C=C2/N(CCCCCC(=O)O)c3ccc(S(=O)(=O)O)cc3C2(C)C)C(C)(C)c2cc(S(=O)(=O)[O-])ccc21 [dye A]

absorption maximum [1]: 658 nm
remaining initial fluorescence intensity ([5]; solution in water, after 25 days of irradiation): 85%
photostability relative to Alexa 647 ([5]; solutions in water): improved photostability
Molecule: CC1(C)C(/C=C/C(=C/C=C2/N(c3cccc(S(=O)(=O)[O-])c3)c3ccc(S(=O)(=O)[O-])cc3C2(C)C)c2ccc(C(=O)O)cc2)=[N+](c2cccc(S(=O)(=O)[O-])c2)c2ccc(S(=O)(=O)[O-])cc21.[Na+].[Na+].[Na+] [Dye 1]

absorption maximum [1]: 567 nm
Molecule: CC1(C)C(/C=C/C=C2/N(c3cccc(S(=O)(=O)O)c3)c3cc(S(=O)(=O)[O-])c4cc(S(=O)(=O)O)ccc4c3C2(C)C)=[N+](CCCCCC(=O)O)c2ccc(S(=O)(=O)O)cc21 [Example XX]

absorption maximum [1]: 664 nm
fluorescence strength relative to Dy681 ([2]; in water): more than 3 times
fluorescence max ([2]; water): 687 nm
Molecule: CC1(C)C(/C=C/C=C/C=C2/N(c3cccc(S(=O)(=O)O)c3)c3cc(S(=O)(=O)[O-])c4cc(S(=O)(=O)O)ccc4c3C2(C)C)=[N+](CCCCCC(=O)O)c2ccc(S(=O)(=O)O)cc21 [NR665]

absorption maximum [1]: 686 nm
fluorescence intensity compared with Dy681 and Dy682 [2]: higher
shift of fluorescence maximum compared with Dy681 and Dy682 [2]: red shifted
stability compared with commercial dyes [6]: better stability
Molecule: CC1(C)C(/C=C/C(=C/C=C2/N(c3cccc(S(=O)(=O)O)c3)c3ccc4c(S(=O)(=O)[O-])cc(S(=O)(=O)O)cc4c3C2(C)C)c2ccc(C(=O)O)cc2)=[N+](c2cccc(S(=O)(=O)O)c2)c2ccc3c(S(=O)(=O)O)cc(S(=O)(=O)O)cc3c21 [Dye 5A]

optical density remaining [7]: 85%
fluorescence intensity [2, 9]: 422 a.u.
wavelength of fluorescence maximum [2, 9]: 565 nm
Molecule: CCN1C(=CC=CC2=[N+](CCCCCC(=O)O)c3ccc(S(=O)(=O)O)cc3C2(C)C)C(C)(C)c2cc(S(=O)(=O)[O-])ccc21 [Cy3, reference compound]
